For one data set, the target named is 9E10. To be noted: anti‐tag antibody 9E10; read-out: Affinity (K D); cited from earlier work.
A further data set addresses GD‐26 Fab. As to the kind of experiment: ITC titration of peptides or TD‐tagged eGFP into GD‐26 Fab. It counts as binding, mouse. Conditions: 25 °C, Tris buffer pH 7.5, engineered synthetic peptides, single experiment (n = 1). How it is done: The titration experiments were performed with a MicroCal PEAQ‐ITC Automated (Malvern Panalytical, Malvern, UK) at 25 °C. The ITC sample cell contained 200 μL of GD‐26 IgG or GD‐26 Fab in the Tris buffer (50 mM Tris, 150 mM NaCl, pH 7.5). In the syringe, 40 μL of synthetic peptides (peptide III–V) or TD‐tagged eGFP in the same Tris buffer was injected into the sample cell using 20 injections (0.4 μL for the first injection). Prior to data analysis, heats of dilution generated by injecting the peptide solution into the buffer in the sample cell were subtracted from the experimental data. The experimental raw data were analysed using the MicroCal PEAQ‐ITC Analysis software package provided with the instrument. The first data point was removed for fitting the data to a one‐set‐of‐sites model. After entering sample concentrations, the inbuilt function for fitting is operated by clicking iteration button until a good fit to the experimental data points of the isotherms is achieved and Chi‐squared is no longer decreasing. The final fitting parameters including K D, changes in enthalpy (ΔH), entropy (ΔS) and Gibb's free energy (ΔG) and binding stoichiometry were generated by the same software.

In the next data set the target is M2. Conditions: read-out: Affinity (K D); anti‐tag antibody M2; cited from earlier work.
Another data set concerns the target Nanobody ALFA. Set-up: method as in PMID 31562305. Conditions: read-out: Affinity (K D); cited from earlier work.
Data set [1] in a line: Protease resistance of the TD tag during expression and purification. To be noted: without protease inhibitors; tag remains attached and detectable after expression and purification from bacterial and mammalian cell systems.
In a further data set the target is 4B2. Also noted: method as in PMID 24480187. To be noted: anti‐tag antibody 4B2; read-out: Affinity (K D); cited from earlier work.
The target in the next data set is G196. Also noted: method as in PMID 28266535. To be noted: anti‐tag antibody G196; read-out: Affinity (K D); cited from earlier work.
Data set [2] has as its target T1, TD peptide (GTGATPADD), peptide V from the C terminus of HmBRI D94N (Haloarcula marismortui HmBRI C terminus …).
T1 construct: nine residues at the C terminus of Haloarcula marismortui bacteriorhodopsin I (HmBRI); residue numbers 1-9 count on: the TD peptide; also called TD tag; wild-type TD peptide; source: synthetic peptide
T1 chain: GTGATPADD
As to the kind of experiment: ITC; synthetic peptide in the syringe titrated into GD-26 Fab or GD-26 IgG (10 μM) in the cell; 25 °C; 50 mM Tris, 150 mM NaCl, pH 7.5; one-set-of-sites model. To be noted: both partners purified.

Data set [3] is described as follows: Storage stability of GD‐26 IgG. It counts as physicochemical. To be noted: stored at 4 °C in Tris buffer.

Values joined by “and” are separate entries in the source; they are usually repeats but may differ in a detail not shown here. Equal values may be shown once. “Also recorded” adds a separate entry of the source. Where a SMILES comes first, the peptide text is derived from it.

Take EQKLISEEDL [c‐Myc]: on 9E10, the Kd was 2.2 to 560 nM.

On to “TPADD [N4, engineered TD peptide, Gly1 to Ala4 deleted]”, for which the “K D” value on GD‐26 Fab is reported as “completely diminished its capability to bind; also recorded: No binding”.

For DYKDDDDK [FLAG], at M2, the Kd is 3 to 31 nM.

Regarding SRLEEELRRRLTE [ALFA], the Kd at Nanobody ALFA was 0.026 nM.

With `C[C@H](NC(=O)CNC(=O)[C@@H](NC(=O)CN)[C@@H](C)O)C(=O)N[C@H](C(=O)N1CCC[C@H]1C(=O)N[C@@H](C)C(=O)N[C@@H](CC(=O)O)C(=O)N[C@@H](CC(=O)O)C(=O)O)[C@@H](C)O` [TD] (H-GTGATPADD-OH), the “cellular protease resistance and proteolytic stability” value in data set [1] is “good cellular protease resistance and proteolytic stability”.

Consider YPYDVPDYA [HA], for which, at 4B2, the Kd was 1.6 nM.

On to “GTGATPA [C2, engineered TD peptide, Asp9 and Asp8 depleted]”, for which, on GD‐26 Fab, the “K D” value is listed as “complete loss of binding; also recorded: No binding”.

DLVPR: the Kd at G196 was 1.25 nM.

B1: GD-26 IgG (recombinant monoclonal antibody GD-26, mouse IgG2a) (antibody, V domains shown)
VH: QVQLRQSGPELVKPGASVKMSCRASGYTFTNYNIHWVRQRPGQGLEWIGWIYPVDGTTKYNEKFKDKTTLTSDKSSSTAYMSLSGLTSEDSAIYFCARGLDNWGQGTSVTVSS
VL: DVVLTQTPLSLSVTIGQPASISCRSSQRLLYSNGKTYLNWFQQRPGQAPKYLMFQVSKLGPGIPARFSGSGSETDFTLKISRVEAEDLGVYYCFQGTFFPHTFGGGTKLEMK
notes: PDB 7DOH); Mouse IgG2a isotype; the same light-chain plasmid as for the Fab; source: Expi293F, transient co-transfection, secreted; purified (HiTrap Protein G, Superdex 200 gel filtration); copies: 2 + 2
Consider B1, for which, in [2], the Kd is 22.6 nM and 18.8 nM; the dH is -12.2 kcal/mol; the “stoichiometry N” value was 2.28 sites and 2.27 sites.

B2: GD‐26 IgG: recombinant monoclonal antibody, mouse IgG2a isotype, raised against HmBRI D94N (antibody, V domains shown)
VH: B1 VH
VL: B1 VL
In the case of B2, the “long‐term stability on storage” value in data set [3] was “over a year”.

Source of the values: PMC9292375, “Structural basis of an epitope tagging system derived from Haloarcula marismortui bacteriorhodopsin I D94N and its monoclonal antibody GD‐26” (The Febs Journal, 2021).
